From PubChem BioAssay AID1222 (Sanford-Burnham Center for Chemical Genomics, 2008)
The source made the active and inactive calls.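 Rule for the calls: active = EC50 below 50 µM in the dose-response confirmation; inactive = the rest.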

Tested on: CSM14.1 thapsigargin-induced death rescue, ATP luminescence
Test: rescue of cells from ER stress-induced death, primary screen, 384-well, CSM14.1, thapsigargin, ATP luminescence (AID 1222);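 note: death triggered by thapsigargin at about 15 µM added after 2 h compound pretreatment; cell ATP read after overnight thapsigargin exposure of roughly 18 to 22 hours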

Row | SMILES | EC50
1 | COC(=O)c1ccc(NC(=O)C2CC(=O)N(c3ccc(C)cc3)C2)cc1 (stereo not given) | > 100 µM (inactive)
2 | O=C(NC1CCCCC1)C(c1ccc2ncccc2c1)N(Cc1ccccc1)C(=O)c1ccc2c(c1)OCCO2 (stereo not given) | 32.3 µM
3 | CC(C)CC(NC(=O)OC(C)(C)C)c1cn([C@@H](Cc2cc3ccccc3[nH]2)C(=O)N2CCN(C(=O)OC(C)(C)C)CC2)nn1 (stereo not given in full) | 62.2 µM (inactive)
4 | COc1ccc(NC2=Nc3ccccc3N3C2=Nc2c(c(C)nn2-c2ccc(C)cc2)C3c2cccnc2)cc1 (stereo not given) | 92.6 µM (inactive)
5 | C#CCOCCOCCOCCNc1nc(N2CCN(C(=O)[C@H](CCCCN)n3cc(CCCC)nn3)CC2)nc(N2CCN(C(=O)[C@H](CCCCN)n3cc(CCCC)nn3)CC2)n1 | > 100 µM (inactive)
6 | CC12C(=O)N(c3ccc(C(=O)N4CCOCC4)cc3)C(=O)C1C1c3ccccc3C2c2ccccc21 (stereo not given) | > 100 µM (inactive)
7 | CNC(=O)c1c(NC(=O)c2nc3ccccc3s2)sc2c1CCC2 | > 100 µM (inactive)
8 | CCOc1cc(/C=N/NC(=O)COc2cccc(C)c2)ccc1OC(=O)c1cccs1 | > 100 µM (inactive)
9 | O=S(=O)(c1ccc2c(c1)OCCO2)N1CCN(c2nc(-c3cccnc3)nc3ccccc23)CC1 | 76.4 µM (inactive)
10 | O=C(Nc1nc(-c2cc(F)ccc2F)cs1)c1ccccn1 | > 100 µM (inactive)
11 | C=C(C)CNC(=S)N/N=C/c1ccc([N+](=O)[O-])cc1 | > 100 µM (inactive)
12 | COc1ccccc1Cn1c(=S)[nH]c2cc(C(=O)NCC3CCCO3)ccc2c1=O (stereo not given) | > 100 µM (inactive)
13 | O=C(Nc1nonc1-c1ccc(Cl)cc1)c1ccccc1 | > 100 µM (inactive)
14 | COc1ccc(CNC(=O)CCCn2nc(C)c([N+](=O)[O-])c2C)cc1OC | > 100 µM (inactive)
15 | Cc1nc(N2CCN(C(=O)c3ccco3)CC2)c2c3c(sc2n1)CC(C)CC3 (stereo not given) | 58.7 µM (inactive)
16 | CCCCC(=O)NNC(=S)NC(=O)c1ccc(C)cc1 | > 100 µM (inactive)
17 | COc1ccc(C(=O)NNC(=S)NC(=O)C(C)(C)C)cc1 | > 100 µM (inactive)
18 | CCO[C@@H]1OC(C(=O)N2CCN(Cc3ccc4c(c3)OCO4)CC2)=C[C@H](c2csc3ccccc23)[C@H]1CCCO | 86.1 µM (inactive)
19 | COC(=O)[C@@]1(Cc2ccc(F)cc2)[C@H]2c3cc(C(=O)N4CCCC4)n(CCc4c[nH]c5ccc(OC)cc45)c3C[C@H]2CN1C(=O)c1ccccc1 | 66.2 µM (inactive)
20 | Cc1ccc(-c2nnn(CC(=O)N(Cc3cccs3)C(C(=O)NC3CCCC3)c3ccncc3)n2)cc1 (stereo not given) | > 100 µM (inactive)

Row | SMILES | EC50
21 | O=C(c1ccc(N2CCCC2=O)cc1)N1CCCCCC1 | > 100 µM (inactive)
22 | O=C(NC1CCCCC1)C(c1ccc2ncccc2c1)N(Cc1ccc(F)cc1)C(=O)c1ccc2c(c1)OCCO2 (stereo not given) | 28.8 µM
23 | CCN1CCc2c(OCC(=O)N3N=C(c4cccs4)CC3c3ccc(F)cc3)cccc2C1=O (stereo not given) | 42 µM
24 | C/C(=N\NC(=S)Nc1cccc(C)c1)c1ccco1 | > 100 µM (inactive)
25 | COc1ccc(C(=O)C(OC(=O)c2ccccc2)c2ccccc2)cc1 (stereo not given) | 66.5 µM (inactive)
26 | O=C(CSc1nnnn1-c1ccccc1)c1cc2ccccc2oc1=O | > 100 µM (inactive)
27 | Cc1ccc2c(C(=O)N3CCN(c4ccccc4)CC3)cc(-c3cccnc3)nc2c1C | 81.3 µM (inactive)
28 | C#CCOCCOCCOCCNc1nc(N2CCN(C(=O)[C@H](C)n3cc(CCCN=C(N)N)nn3)CC2)nc(N2CCN(C(=O)[C@H](C)n3cc(CCCN=C(N)N)nn3)CC2)n1 | > 100 µM (inactive)
29 | COc1ccc(/C=C/C(=O)N2CCCc3ccccc32)cc1 | > 100 µM (inactive)
30 | CCN(CC)c1ccc(/C=C(/C#N)c2nc3ccc(C)cc3[nH]2)c(OC(C)C)c1 | > 100 µM (inactive)
31 | COc1ccc(CN(C(=O)c2cccs2)C(C(=O)NC2CCCCC2)c2ccc3ncccc3c2)cc1 (stereo not given) | 68.5 µM (inactive)
32 | O=C(NC1CCCCC1)C(c1ccc2ncccc2c1)N(Cc1ccc2c(c1)OCO2)C(=O)c1ccc2c(c1)OCCO2 (stereo not given) | 21.3 µM
33 | Cc1ccc2cccc(N=Cc3c(C)[nH]n(-c4ccccc4)c3=O)c2n1 | > 100 µM (inactive)
34 | Cc1cc(CNC(=O)Cc2ccccc2)c2ccccc2n1 | > 100 µM (inactive)
35 | COc1ccc(CN(C(=O)c2ccc3c(c2)OCCO3)C(C(=O)NC2CCCCC2)c2ccc3ncccc3c2)cc1 (stereo not given) | 31.4 µM
36 | C#CCOCCOCCOCCNc1nc(N2CCN(C(=O)[C@H]([C@@H](C)CC)n3cc(CCCN=C(N)N)nn3)CC2)nc(N2CCN(C(=O)[C@H](CCCCN)n3cc(CCCC)nn3)CC2)n1 | > 100 µM (inactive)
37 | Cc1c(Cl)c(C(F)F)nn1CC(=O)NC1C(=O)N2C(C(=O)O)=C(CSc3nnnn3C)CSC12 (stereo not given) | > 100 µM (inactive)
38 | CC[C@@H](C)[C@@H](C(=O)N1CCN(C(=O)OC(C)(C)C)CC1)n1cc(CCCN=C(NC(=O)OC(C)(C)C)NC(=O)OC(C)(C)C)nn1 | 58.5 µM (inactive)
39 | O=c1c2c(-c3ccccc3)csc2ncn1/N=C/c1cccc([N+](=O)[O-])c1O | > 100 µM (inactive)
40 | CC1=NN(/C(=N\c2nnc(C)s2)Nc2ccccc2)[C@H](c2ccc(C)cc2)S1 | > 100 µM (inactive)

Row | SMILES | EC50
41 | CCCCC(=O)NC(=S)NNC(=O)c1ccc(Cl)cc1Cl | > 100 µM (inactive)
42 | CCN1C(=O)/C(=C/c2ccc3c(c2)CCN3CCCCl)C(=O)NC1=S | 44.7 µM
43 | CCC(=O)Nc1nc2ccccc2n1Cc1ccc(Cl)cc1 | > 100 µM (inactive)
44 | CCOc1ccccc1NC(=O)C(OC(=O)c1ccccc1NS(=O)(=O)c1cccs1)c1ccccc1 (stereo not given) | > 100 µM (inactive)
45 | CCCCCCn1c(O)c(/C=C2\C=NN=C2c2ccccc2)sc1=S | > 100 µM (inactive)
46 | CCCC1=[N+](CC(C)=O)CCn2c(C)ccc21 | > 100 µM (inactive)
47 | COc1ccc(C2=C/C(=C\c3cccc(OC(C)=O)c3)C(=O)O2)cc1 | > 100 µM (inactive)
48 | CCC(=O)NC(=S)NNC(=O)c1ccc(OC)cc1 | > 100 µM (inactive)
49 | CC12COC3(P(=O)(c4ccccc4)c4ccccc4)CC1CCC23CP(=O)(c1ccccc1)c1ccccc1 (stereo not given) | 40.2 µM
50 | O=c1[nH]c(-c2ccccn2)nc2sc(-c3ccccc3)cc12 | > 100 µM (inactive)
51 | COc1ccc(-c2oc3ccccc3c(=O)c2OC(C)=O)cc1 | > 100 µM (inactive)
52 | CC(C)C(=O)N1CCC(CN=Cc2c(O)n(C3CCCCC3)c(=O)n(C3CCCCC3)c2=O)CC1 | 70.3 µM (inactive)
53 | CCc1ccc(CC2S/C(=C(\C#N)C(C)=O)NC2=O)cc1 (stereo not given) | > 100 µM (inactive)
54 | Cc1cccc(C(=O)O/N=C(/c2ccccc2)c2ccncc2)c1 | > 100 µM (inactive)
55 | COCCn1c(C)cc(C(=O)COC(=O)CCN2C(=O)c3ccccc3C2=O)c1C | > 100 µM (inactive)
56 | CCOC(=O)C1=C(NC(=S)NC(=O)c2ccccc2)c2ccccc2CC1(C)C | > 100 µM (inactive)
57 | CN1CCC(O)(c2ccccc2)C(C(=O)c2ccccc2)C1 (stereo not given) | > 100 µM (inactive)
58 | O=C(NC1CCCCC1)C(c1ccncc1)N(Cc1ccccc1)C(=O)c1ccc(-c2ccccc2)[nH]1 (stereo not given) | 52.5 µM (inactive)
59 | Cc1ccc(OCC(=O)NCCC2=CCCCC2)cc1 | > 100 µM (inactive)
60 | Clc1ccc(OCCCN2CCCCC2)c(Br)c1 | > 100 µM (inactive)
